Assay results published in PMC11823630, “In vitro potentiation of tetracyclines in Pseudomonas aeruginosa by RW01, a new cyclic peptide” (Antimicrobial Agents and Chemotherapy, 2024).
Values after ≈ are worked out from the molar mass of the structure shown. Read-outs that look alike come from different tables or passages of the source.

Legend:
[1] = system: PAO1 mutant MIN4_RW01_3, pmrB(M292T); assay: MIC, E-test on MHA; format: cell-based; details: Pseudomonas aeruginosa, PAO1, read-out: MIC, E-test
[2] = system: PAO1 mutant MIN1_RW01_4, pmrB(F124L); assay: MIC, E-test on MHA; format: cell-based; details: Pseudomonas aeruginosa, PAO1, read-out: MIC, E-test
[3] = system: PAO1 mutant MIN16_1, nalD(T43P); assay: MIC, E-test on MHA; format: cell-based; details: Pseudomonas aeruginosa, PAO1, read-out: MIC, E-test
P. aeruginosa PAO1 = assay: MIC, CLSI broth microdilution in BD Phoenix AST Broth; format: cell-based, Pseudomonas aeruginosa; details: for MIC: Pseudomonas aeruginosa
P. aeruginosa PAOUW = assay: as above; format: cell-based, Pseudomonas aeruginosa; details: strain PAOUW; for MIC: agent alone, 37°C, 18–22 h, three biological replicates
P. aeruginosa PAOUW∆oprF = assay: as above; format: cell-based, Pseudomonas aeruginosa
P. aeruginosa PAOΔmexZ = assay: as above; format: cell-based, Pseudomonas aeruginosa; details: strain PAOΔmexZ; for MIC: agent alone, 37°C, 18–22 h, three biological replicates
P. aeruginosa 125B = assay: as above; format: cell-based, Pseudomonas aeruginosa; details: strain 125B
P. aeruginosa 41A = assay: as above; format: cell-based, Pseudomonas aeruginosa; details: strain 41A
P. aeruginosa 41B = assay: as above; format: cell-based, Pseudomonas aeruginosa; details: strain 41B
P. aeruginosa PAOΔmexR = assay: as above; format: cell-based, Pseudomonas aeruginosa; details: strain PAOΔmexR
P. aeruginosa PAOΔoprM = assay: as above; format: cell-based, Pseudomonas aeruginosa
P. aeruginosa 125A = assay: as above; format: cell-based, Pseudomonas aeruginosa; details: strain 125A
[4] = system: PAO1 mutant MIN8_4, pilZ(nt18InsT); assay: MIC, E-test on MHA; format: cell-based; details: Pseudomonas aeruginosa, PAO1, read-out: MIC, E-test
[5] = system: PAO1 mutant MIN1_RW01_1, pmrB(Y98N); assay: MIC, E-test on MHA; format: cell-based; details: Pseudomonas aeruginosa, PAO1, read-out: MIC, E-test
[6] = system: PAO1 mutant MIN8_1, nalD(R3C), pilM(Q62X); assay: MIC, E-test on MHA; format: cell-based; details: Pseudomonas aeruginosa, PAO1, read-out: MIC, E-test
[7] = system: PAO1 mutant MIN16_3, nfxB(nt79∆14), pilB(N349K); assay: MIC, E-test on MHA; format: cell-based; details: Pseudomonas aeruginosa, PAO1, read-out: MIC, E-test
[8] = system: PAO1 mutant MIN2_RW01_1, pmrB(V215L); assay: MIC, E-test on MHA; format: cell-based; details: Pseudomonas aeruginosa, PAO1, read-out: MIC, E-test
[9] = system: PAO1 mutant MIN32_1, mexR(R63H), pilB(N349K), PA0646(V316G); assay: MIC, E-test on MHA; format: cell-based; details: Pseudomonas aeruginosa, PAO1, read-out: MIC, E-test
[10] = system: PAO1 mutant MIN4_RW01_4, pmrB(Y98N); assay: MIC, E-test on MHA; format: cell-based; details: Pseudomonas aeruginosa, PAO1, read-out: MIC, E-test
[11] = system: PAO1 mutant MIN2_RW01_2, pmrB(M292T); assay: MIC, E-test on MHA; format: cell-based; details: Pseudomonas aeruginosa, PAO1, read-out: MIC, E-test
[12] = system: PAO1 mutant MIN4_RW01_2, pmrB(F124S); assay: MIC, E-test on MHA; format: cell-based; details: Pseudomonas aeruginosa, PAO1, read-out: MIC, E-test
[13] = system: PAO1 mutant MIN8_2, pilZ(nt18InsT); assay: MIC, E-test on MHA; format: cell-based; details: Pseudomonas aeruginosa, PAO1, read-out: MIC, E-test
[14] = strain PAO1, antibiotic with RW01 at 100 mg/L
[15] = MIC of the antibiotic with fixed 100 mg/L RW01
[16] = antibiotic MIC alone vs with RW01 100 mg/L
[17] = antibiotic with RW01 at 100 mg/L
[18] = strain PAOUWΔoprF (printed PAOΔoprF), antibiotic with RW01 at 100 mg/L
[19] = Pseudomonas aeruginosa, agent alone, 37°C, 18–22 h, three biological replicates
[20] = strain PAOΔoprM, antibiotic with RW01 at 100 mg/L

Which MIC [1] does the source give for `CN(C)c1cc(NC(=O)CNC(C)(C)C)c(O)c2c1C[C@H]1C[C@H]3[C@H](N(C)C)C(O)=C(C(N)=O)C(=O)[C@@]3(O)C(O)=C1C2=O` [Tigecycline, tigecycline] here?
Its MIC is 32 µg/mL (≈ 54.6 µM).

What about the MIC [2] of the same compound?
Its MIC is 24 µg/mL (≈ 41 µM).

What about the MIC [3] of the same compound?
Its MIC is 16 µg/mL (≈ 27.3 µM).

What about the MIC (P. aeruginosa PAO1; PAO1) of the same compound?
Its MIC is 8 µg/mL.

And the MIC (P. aeruginosa PAO1; PAO1, strain PAO1, agent alone, 37°C, 18–22 h, three biological replicates, read-out: MIC)?
The MIC was 2 µg/mL.

What about the “Antibiotic MIC + RW01 100 mg/L” value (P. aeruginosa PAO1; strain PAO1, MIC of the antibiotic with fixed 100 mg/L RW01) of the same compound?
The value was 2 µg/mL.

And the “Potentiation (fold)” value (P. aeruginosa PAO1; strain PAO1, antibiotic MIC alone vs with RW01 100 mg/L)?
Its value is 4 fold.

And the FICI (P. aeruginosa PAO1; [14])?
The FICI was 0.445.

What about the FICI-determined effect (P. aeruginosa PAO1; [14]) of the same compound?
Its FICI-determined effect is “Synergy (synergistic effect if FICI is ≤0.5)”.

And the MIC (P. aeruginosa PAOUW; Pseudomonas aeruginosa, read-out: MIC)?
Its MIC is 8 µg/mL.

And the “Antibiotic MIC + RW01 100 mg/L” value (P. aeruginosa PAOUW; [15])?
The value was 1 µg/mL.

And the MIC (P. aeruginosa PAOUW)?
Its MIC is 4 µg/mL.

And the “Potentiation (fold)” value (P. aeruginosa PAOUW; [16])?
The value was 4 fold.

And the FICI (P. aeruginosa PAOUW; [17])?
Its FICI is 0.348.

What about the FICI-determined effect (P. aeruginosa PAOUW; [17]) of the same compound?
Its FICI-determined effect is “Synergy (synergistic effect if FICI is ≤0.5)”.

And the “Potentiation (fold)” value (P. aeruginosa PAOUW∆oprF; strain PAOUWΔoprF (printed PAOΔoprF), antibiotic MIC alone vs with RW01 100 mg/L)?
Its value is 8 fold.

What about the FICI (P. aeruginosa PAOUW∆oprF; [18]) of the same compound?
Its FICI is 0.223.

And the FICI-determined effect (P. aeruginosa PAOUW∆oprF; [18])?
The FICI-determined effect was “Synergy (synergistic effect if FICI is ≤0.5)”.

And the MIC (P. aeruginosa PAOUW∆oprF; strain PAOUWΔoprF, agent alone, 37°C, 18–22 h, three biological replicates)?
Its MIC is 16 µg/mL.

And the MIC (P. aeruginosa PAOΔmexZ; Pseudomonas aeruginosa)?
The MIC was 16 µg/mL.

And the MIC (P. aeruginosa PAOΔmexZ)?
Its MIC is 8 µg/mL.

What about the “Potentiation (fold)” value (P. aeruginosa PAOΔmexZ; [16]) of the same compound?
Its value is 8 fold.

And the FICI (P. aeruginosa PAOΔmexZ; [17])?
The FICI was 0.223.

What about the FICI-determined effect (P. aeruginosa PAOΔmexZ; [17]) of the same compound?
The FICI-determined effect was “Synergy (synergistic effect if FICI is ≤0.5)”.

And the MIC (P. aeruginosa 125B; [19])?
The MIC was 8 µg/mL.

And the “Antibiotic MIC + RW01 100 mg/L” value (P. aeruginosa 125B; [15])?
Its value is 1 µg/mL.

What about the “Potentiation (fold)” value (P. aeruginosa 125B; [16]) of the same compound?
The value was 8 fold.

And the FICI (P. aeruginosa 125B; [17])?
Its FICI is 0.320.

What about the FICI-determined effect (P. aeruginosa 125B; [17]) of the same compound?
The FICI-determined effect was “Synergy (synergistic effect if FICI is ≤0.5)”.

And the MIC (P. aeruginosa 41A; [19])?
Its MIC is 8 µg/mL.

And the “Antibiotic MIC + RW01 100 mg/L” value (P. aeruginosa 41A; [15])?
The value was 2 µg/mL.

And the “Potentiation (fold)” value (P. aeruginosa 41A; [16])?
The value was 4 fold.

And the FICI (P. aeruginosa 41A; [17])?
The FICI was 0.348.

What about the FICI-determined effect (P. aeruginosa 41A; [17]) of the same compound?
The FICI-determined effect was “Synergy (synergistic effect if FICI is ≤0.5)”.

And the MIC (P. aeruginosa 41B; [19])?
Its MIC is 8 µg/mL.

What about the “Antibiotic MIC + RW01 100 mg/L” value (P. aeruginosa 41B; [15]) of the same compound?
Its value is 2 µg/mL.

And the “Potentiation (fold)” value (P. aeruginosa 41B; [16])?
The value was 4 fold.

And the FICI (P. aeruginosa 41B; [17])?
The FICI was 0.348.

What about the FICI-determined effect (P. aeruginosa 41B; [17]) of the same compound?
The FICI-determined effect was “Synergy (synergistic effect if FICI is ≤0.5)”.

And the “Antibiotic MIC + RW01 100 mg/L” value (P. aeruginosa PAOΔmexR; [15])?
The value was 1 µg/mL.

What about the “Potentiation (fold)” value (P. aeruginosa PAOΔmexR; [16]) of the same compound?
The value was 8 fold.

What about the FICI (P. aeruginosa PAOΔmexR; [17]) of the same compound?
Its FICI is 0.223.

What about the FICI-determined effect (P. aeruginosa PAOΔmexR; [17]) of the same compound?
The FICI-determined effect was “Synergy (synergistic effect if FICI is ≤0.5)”.

What about the MIC (P. aeruginosa PAOΔoprM; Pseudomonas aeruginosa) of the same compound?
Its MIC is 1 µg/mL.

And the “Antibiotic MIC + RW01 100 mg/L” value (P. aeruginosa PAOΔoprM; strain PAOΔoprM, MIC of the antibiotic with fixed 100 mg/L RW01)?
Its value is 1 µg/mL.

What about the “Potentiation (fold)” value (P. aeruginosa PAOΔoprM; strain PAOΔoprM, antibiotic MIC alone vs with RW01 100 mg/L) of the same compound?
Its value is 1 fold.

What about the FICI (P. aeruginosa PAOΔoprM; [20]) of the same compound?
The FICI was 1.098.

And the FICI-determined effect (P. aeruginosa PAOΔoprM; [20])?
The FICI-determined effect was “Indifference (indifferent effect if 1.0 < FICI ≤ 2.0)”.

And the MIC (P. aeruginosa 125A; [19])?
Its MIC is 8 µg/mL.

And the “Antibiotic MIC + RW01 100 mg/L” value (P. aeruginosa 125A; [15])?
Its value is 1 µg/mL.

What about the “Potentiation (fold)” value (P. aeruginosa 125A; [16]) of the same compound?
The value was 8 fold.

What about the FICI (P. aeruginosa 125A; [17]) of the same compound?
Its FICI is 0.320.

What about the FICI-determined effect (P. aeruginosa 125A; [17]) of the same compound?
Its FICI-determined effect is “Synergy (synergistic effect if FICI is ≤0.5)”.

What about the MIC [4] of the same compound?
The MIC was 32 µg/mL (≈ 54.6 µM).

And the MIC [5]?
Its MIC is 24 µg/mL (≈ 41 µM).

And the MIC [6]?
The MIC was 32 µg/mL (≈ 54.6 µM).

And the MIC [7]?
The MIC was 48 µg/mL (≈ 82 µM).

What about the MIC [8] of the same compound?
The MIC was 24 µg/mL (≈ 41 µM).

And the MIC [9]?
Its MIC is 24 µg/mL (≈ 41 µM).

What about the MIC [10] of the same compound?
Its MIC is 32 µg/mL (≈ 54.6 µM).

What about the MIC [11] of the same compound?
The MIC was 16 µg/mL (≈ 27.3 µM).

What about the MIC [12] of the same compound?
Its MIC is 16 µg/mL (≈ 27.3 µM).

And the MIC [13]?
The MIC was 32 µg/mL (≈ 54.6 µM).
